Assay results from patent US20070232575A1, “Treatment of Pulmonary Artery Hypertension with Dhea, Dheas, Dhea Analogs, or Dhea Derivatives” (priority 2004, published 2007).
“And” between values parts separate entries of the source, which are not always exact repeats. Equal values may be shown once. “Also recorded” adds a separate entry of the source.

What was measured:
PASMCs from CH rats = assay: In vitro DHEA treatment of PASMCs, resting [Ca2+]i, with K channel blockers and pathway inhibitors; type: cell-based, rat; details: for effect on the DHEA-induced [Ca2+]i decrease: DHEA plus blocker/inhibitor: IbTx, agitoxin-2, ODQ 10 μM, genistein 1 μM, 476485 1 μM, DTT
Description: The heart and lungs were removed and intrapulmonary arteries (IPAs) (150-300 μm of internal diameter) were then dissected. The adventitial and intimal layers were removed. For contraction experiments, rings (3 mm in length) were prepared.
As mentioned earlier, Ca^2+ is thought to play an important role in the response to chronic hypoxia. To measure the effects of DHEA on [Ca^2+]i of individual PASMCs, a [Ca^2+]i-sensitive fluorophore, indo-1 (Calbiochem, San Diego, Calif.), was employed. […] The recording system included a Nikon Diaphot inverted microscope fitted with epifluorescence.
To further examine how DHEA functions to decrease the [Ca^2+]i in PASMCs, the following experiment was performed.

[1] = system: chronic hypoxic-pulmonary artery hypertension (CH-PAH); assay: Mean pulmonary arterial pressure (PAP) in chronic hypoxic (CH-PAH) rat model; type: in vivo; details: for reversal of PA hypertension: in contrast to testosterone, estradiol, pregnenolone, protocol not restated; for effect on PAP, i.v. administration: 3 mg/kg, same intravascular protocol as for DHEA, CH-DHEA rats (so in the source)
Description: To study the mechanisms of PAH and its possible treatments, an animal model was utilized. The placement of rats in a hypobaric chamber for 7 to 21 days induced chronic hypoxia, resulting in CH-PAH, a useful model system for studying mammalian PAH.
The rat model experiments were performed as follows. Adult male Wistar rats (220-240 g) were randomized into five groups. […] Intravascular administration was performed via the catheter inserted in the right jugular vein.

Compound: agitoxin-2
- effect on the DHEA-induced [Ca2+]i decrease (PASMCs from CH rats): no effect

Compound: iberiotoxin (QFTDVDCSVSKECWSVCKDLFGVDRGKCMGKKCRCYQ; UniProt P24663 1-37, looked up) [IbTx]
- inhibition of the DHEA-induced change of resting [Ca2+]i (PASMCs from CH rats; DHEA 100 μM and IbTx 100 nM, 10 min, PASMCs from CH rats): 62% and 65%
- effect on the DHEA-induced [Ca2+]i decrease (PASMCs from CH rats): blocked

Compound: C[C@]12CC[C@H](O)C[C@@H]1CC[C@@H]1[C@@H]2CC[C@]2(C)C(=O)CC[C@@H]12 [3β-hydroxy-5α-androstan-17-one]
- reversal of PA hypertension [1]: did reverse PA hypertension

Compound: CC(=O)[C@H]1CC[C@H]2[C@@H]3CC=C4C[C@@H](O)CC[C@]4(C)[C@H]3CC[C@]12C [pregnenolone]
- effect on PAP, i.v. administration [1]: did not reveal any effect

Compound: C[C@H]1CC[C@@]2(C)C(=CC[C@@H]3[C@@H]2CC[C@]2(C)C(=O)CC[C@@H]32)C1 [3βmethyl-5-androsten-17-one]
- reversal of PA hypertension [1]: did reverse PA hypertension

Compound: C[C@]12CC[C@H]3[C@@H](CC=C4C[C@@H](O)CC[C@@]43C)[C@@H]1CC[C@@H]2O [5-androsten-3β,17β-diol]
- reversal of PA hypertension [1]: did reverse PA hypertension

Compound: O[C@@H](CS)[C@@H](O)CS [DTT]
- effect on the DHEA-induced [Ca2+]i decrease (PASMCs from CH rats): totally inhibited; also recorded: suppressed; also recorded: inhibits the effect of DHEA
- elevation of the resting [Ca2+]i (PASMCs from CH rats; DTT with DHEA, PASMCs): 23 nM

Compound: O=c1onc2cnc3ccccc3n12 [ODQ, 1H-[1,2,4]oxadiazolol[4,3,-a]quinoxalin-1-one]
- effect on the DHEA-induced [Ca2+]i decrease (PASMCs from CH rats): did not alter; also recorded: no effect

Compound: Nc1ccncc1 [4-AP, 4-amino-pyridine]
- block of the DHEA-induced [Ca2+]i decrease (PASMCs from CH rats; combined IbTx 100 nM and 4-AP 1 mM): 100%
- effect on the DHEA effect on resting [Ca2+]i (PASMCs from CH rats; combined presence of 4-AP and IbTx): almost totally abolished

Compound: C[C@]12CC[C@H]3[C@@H](CCC4=CC(=O)CC[C@@]43C)[C@@H]1CC[C@@H]2O [testosterone]
- effect on PAP, i.v. administration [1]: did not reveal any effect

Compound: O=c1c(-c2ccc(O)cc2)coc2cc(O)cc(O)c12 [genistein, Genistein]
- effect on the DHEA-induced [Ca2+]i decrease (PASMCs from CH rats): did not alter; also recorded: no effect
